Our source for the EC50 values is patent US20240228504A1, “SUBSTITUTED TRICYCLIC AMIDES, ANALOGUES THEREOF, AND METHODS USING SAME” (Arbutus Biopharma Corporation, priority 2020, published 2024).

The term EC50 denotes the concentration that produces a half-maximal response.

In the assay the test system is HBV rcDNA in HepDE19 cells. Description: HepDE19 assay with bDNA quantitation of HBV rcDNA. The assay is classed as cell-based, hepatitis B virus. The settings on record: Hepatitis B virus, HepDE19, HepDE19 assay, inhibition of rcDNA formation, bDNA quantitation; read-out: DE-19bDNA EC50.
For the compound `CN(C(=O)c1ccc(F)c(Br)c1)[C@@H]1COCc2[nH]c(=O)c3cc(F)c(F)cc3c21` [Compound 130, (S)-3-Bromo-N-(8,9-difluoro-6-oxo-1,4,5,6-tetrahydro-2H-pyrano[3,4-c]isoquinolin-1-yl)-4-fluoro-N-methylbenzamide], the EC50 came to 10 nM.

As to `CN(C(=O)c1ccc(Br)cc1)[C@@H]1COCc2[nH]c(=O)c3cc(F)c(F)cc3c21` [Compound 131, (S)-4-Bromo-N-(8,9-difluoro-6-oxo-1,4,5,6-tetrahydro-2H-pyrano[3,4-c]isoquinolin-1-yl)-N-methylbenzamide], the EC50 was 10 nM.

For the compound `CN(C(=O)c1cccc(C#N)c1)[C@@H]1COCc2[nH]c(=O)c3cc(F)c(F)cc3c21` [Compound 135, (S)-3-Cyano-N-(8,9-difluoro-6-oxo-1,4,5,6-tetrahydro-2H-pyrano[3,4-c]isoquinolin-1-yl)-N-methylbenzamide], the EC50 was 770 nM.

For the compound `CN(C(=O)c1ccc(OC(F)(F)F)c(F)c1)[C@@H]1COCc2[nH]c(=O)c3cc(F)c(F)cc3c21` [Compound 136, (S)-N-(8,9-Difluoro-6-oxo-1,4,5,6-tetrahydro-2H-pyrano[3,4-c]isoquinolin-1-yl)-3-fluoro-N-methyl-4-(trifluoromethoxy)benzamide], the EC50 stood at 40 nM.

In the case of `Cc1ccc(C(=O)N(C)[C@@H]2COCc3[nH]c(=O)c4cc(F)c(F)cc4c32)cc1F` [Compound 137, (S)-N-(8,9-Difluoro-6-oxo-1,4,5,6-tetrahydro-2H-pyrano[3,4-c]isoquinolin-1-yl)-3-fluoro-N,4-dimethylbenzamide], the EC50 amounted to 60 nM.

In the case of `CN(C(=O)[C@H](O)c1cccc(Cl)c1)[C@@H]1COCc2[nH]c(=O)c3cc(F)c(F)cc3c21` [Compound 138, (R)-2-(3-Chlorophenyl)-N-((S)-8,9-difluoro-6-oxo-1,4,5,6-tetrahydro-2H-pyrano[3,4-c]isoquinolin-1-yl)-2-hydroxy-N-methylacetamide], the EC50 stood at 1200 nM.

Consider `CN(C(=O)c1cc(F)c(C(F)(F)F)c(F)c1)[C@@H]1COCc2[nH]c(=O)c3cc(F)c(F)cc3c21` [Compound 139, (S)-N-(8,9-Difluoro-6-oxo-1,4,5,6-tetrahydro-2H-pyrano[3,4-c]isoquinolin-1-yl)-3,5-difluoro-N-methyl-4-(trifluoromethyl)benzamide], for which the EC50 came out at 10 nM.

Take `CN(C(=O)c1csc(Cl)c1)[C@@H]1COCc2[nH]c(=O)c3cc(F)c(F)cc3c21` [Compound 140, (S)-5-Chloro-N-(8,9-difluoro-6-oxo-1,4,5,6-tetrahydro-2H-pyrano[3,4-c]isoquinolin-1-yl)-N-methylthiophene-3-carboxamide]: the EC50 was determined as 100 nM.

Turning to `CN([C@@H]1COCc2[nH]c(=O)c3cc(F)c(F)cc3c21)S(=O)(=O)c1ccc(F)c(Cl)c1` [Compound 143, (S)-3-Chloro-N-(8,9-difluoro-6-oxo-1,4,5,6-tetrahydro-2H-pyrano[3,4-c]isoquinolin-1-yl)-4-fluoro-N-methylbenzenesulfonamide], the EC50 stood at 18000 nM.

Take `CN([C@@H]1COCc2[nH]c(=O)c3cc(F)c(F)cc3c21)S(=O)(=O)c1cccc(Cl)c1` [Compound 144, (S)-3-Chloro-N-(8,9-difluoro-6-oxo-1,4,5,6-tetrahydro-2H-pyrano[3,4-c]isoquinolin-1-yl)-N-methylbenzenesulfonamide]: the EC50 came out at 12000 nM.

With `CN([C@@H]1COCc2[nH]c(=O)c3cc(F)c(F)cc3c21)S(=O)(=O)c1cccc(C#N)c1` [Compound 145, (S)-3-Cyano-N-(8,9-difluoro-6-oxo-1,4,5,6-tetrahydro-2H-pyrano[3,4-c]isoquinolin-1-yl)-N-methylbenzenesulfonamide], the EC50 was determined as 5500 nM.

`CN([C@@H]1COCc2[nH]c(=O)c3cc(F)c(F)cc3c21)S(=O)(=O)c1ccc(F)c(C#N)c1` [Compound 146, (S)-3-Cyano-N-(8,9-difluoro-6-oxo-1,4,5,6-tetrahydro-2H-pyrano[3,4-c]isoquinolin-1-yl)-4-fluoro-N-methylbenzenesulfonamide]: the EC50 was 23000 nM.

`CCc1ccc(C(=O)N(C)[C@@H]2COCc3[nH]c(=O)c4cc(F)c(F)cc4c32)cc1F` [Compound 147, (S)-N-(8,9-Difluoro-6-oxo-1,4,5,6-tetrahydro-2H-pyrano[3,4-c]isoquinolin-1-yl)-4-ethyl-3-fluoro-N-methylbenzamide]: the EC50 is 3300 nM.

As to `O=C(N[C@@H]1COCc2[nH]c(=O)c3cc(F)c(F)cc3c21)c1cc2ccccn2c1` [Compound 148, (S)-N-(8,9-Difluoro-6-oxo-1,4,5,6-tetrahydro-2H-pyrano[3,4-c]isoquinolin-1-yl)indolizine-2-carboxamide], the EC50 was 760 nM.

Consider `CN(C(=O)c1ccc(OC(F)F)c(F)c1)[C@@H]1COCc2[nH]c(=O)c3cc(F)c(F)cc3c21` [Compound 153, (S)-N-(8,9-Difluoro-6-oxo-1,4,5,6-tetrahydro-2H-pyrano[3,4-c]isoquinolin-1-yl)-4-(difluoromethoxy)-3-fluoro-N-methylbenzamide], for which the EC50 was found to be 150 nM.

For the compound `CN(C(=O)c1ccc(C(C)(C)O)cc1)[C@@H]1COCc2[nH]c(=O)c3cc(F)c(F)cc3c21` [Compound 154, (S)-N-(8,9-Difluoro-6-oxo-1,4,5,6-tetrahydro-2H-pyrano[3,4-c]isoquinolin-1-yl)-4-(2-hydroxypropan-2-yl)-N-methylbenzamide], the EC50 was 1050 nM.

For the compound `CN(C(=O)c1cccc(C(C)(C)O)c1)[C@@H]1COCc2[nH]c(=O)c3cc(F)c(F)cc3c21` [Compound 155, (S)-N-(8,9-Difluoro-6-oxo-1,4,5,6-tetrahydro-2H-pyrano[3,4-c]isoquinolin-1-yl)-3-(2-hydroxypropan-2-yl)-N-methylbenzamide], the EC50 worked out at 4490 nM.

Consider `O=C(N[C@@H]1COCc2[nH]c(=O)c3cc(F)c(F)cc3c21)c1cc2cc(F)c(F)cc2[nH]1` [Compound 156, (S)-N-(8,9-Difluoro-6-oxo-1,4,5,6-tetrahydro-2H-pyrano[3,4-c]isoquinolin-1-yl)-5,6-difluoro-1H-indole-2-carboxamide], for which the EC50 amounted to 490 nM.

With `O=C(N[C@@H]1COCc2[nH]c(=O)c3cc(F)c(F)cc3c21)c1cc2c(F)cc(F)cc2[nH]1` [Compound 157, (S)-N-(8,9-Difluoro-6-oxo-1,4,5,6-tetrahydro-2H-pyrano[3,4-c]isoquinolin-1-yl)-4,6-difluoro-1H-indole-2-carboxamide], the EC50 was determined as 250 nM.

With `O=C(N[C@@H]1COCc2[nH]c(=O)c3cc(F)c(F)cc3c21)c1ccc(C(F)(F)F)c(F)c1` [Compound 158, (S)-N-(8,9-Difluoro-6-oxo-1,4,5,6-tetrahydro-2H-pyrano[3,4-c]isoquinolin-1-yl)-3-fluoro-4-(trifluoromethyl)benzamide], the EC50 stood at 580 nM.

`O=C(N[C@@H]1COCc2[nH]c(=O)c3cc(F)c(F)cc3c21)c1ccc(Cl)c(F)c1` [Compound 159, (S)-4-chloro-N-(8,9-difluoro-6-oxo-1,4,5,6-tetrahydro-2H-pyrano[3,4-c]isoquinolin-1-yl)-3-fluorobenzamide]: the EC50 was determined as 660 nM.

With `CN(C(=O)c1cc(F)c(Br)c(F)c1)[C@@H]1COCc2[nH]c(=O)c3cc(F)c(F)cc3c21` [Compound 172, 4-Bromo-N-(8,9-difluoro-6-oxo-2,4,5,6-tetrahydro-1H-pyrano[3,4-c]isoquinolin-1-yl)-3,5-difluoro-N-methylbenzamide], the EC50 stood at 10 nM.
